Consider 29 compounds from patent US9561228B2 (Celgene Avilomics Research, Inc., priority 2013, dated 2017).

In assay [1] the test system is HCT116 cells (colorectal carcinoma). The experiment in a line: Inhibition of cancer cell proliferation, HCT116 (CellTiterGlo, 72 hours). It counts as cell-based. Conditions: Homo sapiens, HCT-116. In outline: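 3000 cells per well exposed to 3-fold serial compound dilutions from 5,000 nM (two-fold solution, stock level) for 72 hours at 37° C. CellTiterGlo luminescence converted to cell number via a standard curve; percent inhibition vs untreated wells, GI50 by curve fit.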

A further assay has as its target T1, MEK1 activated ERK1 (Homo sapiens, UniProt P27361).
T1 construct: purchased Millipore (Billerica, Mass.) 14-439-K
Put plainly: Omnia continuous-read kinase assay for potency against MEK1 activated ERK1. The class given is biochemical. The settings on record: MEK1 activated ERK1, ATP at KM; read-out: ERK1 Omnia WT ATP KM IC50. In outline:
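Apparent IC50 came from initial reaction slopes (RFU vs time) plotted against log inhibitor with a variable-slope fit. Reactions were started with ERK1 (4 nM final) added to 50 μM ATP, roughly at its appKM, and 10 μM Sox-conjugated ST17 peptide in 20 mM Tris pH 7.5, 5 mM MgCl2. Fluorescence was monitored every 71 seconds.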

T1 sequence (P27361 whole entry): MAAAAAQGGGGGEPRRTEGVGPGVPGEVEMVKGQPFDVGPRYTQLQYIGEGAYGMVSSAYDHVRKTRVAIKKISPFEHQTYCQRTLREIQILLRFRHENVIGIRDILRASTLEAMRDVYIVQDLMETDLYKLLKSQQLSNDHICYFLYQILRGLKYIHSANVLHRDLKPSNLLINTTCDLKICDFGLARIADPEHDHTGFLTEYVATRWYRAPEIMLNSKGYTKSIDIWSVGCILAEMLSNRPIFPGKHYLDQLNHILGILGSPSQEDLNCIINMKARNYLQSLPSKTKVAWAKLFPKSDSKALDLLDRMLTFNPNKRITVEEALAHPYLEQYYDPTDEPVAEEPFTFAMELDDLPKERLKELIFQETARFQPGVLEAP

For `C=CC(=O)Nc1ccccc1Nc1nc(N[C@H]2CCN(C(C)=O)C2)ncc1C(F)(F)F` [Compound I-56, (S)—N-(2-((2-((1-Acetylpyrrolidin-3-yl)amino)-5-(trifluoromethyl)pyrimidin-4-yl)amino)phenyl)acrylamide], in assay [1], the GI50 is 0.101 to 0.5 µM. Besides, the IC50 at MEK1 activated ERK1 was 0.101 to 0.5 µM.

Regarding `C=CC(=O)Nc1ccccc1Nc1nc(N[C@H]2CCN(C(=O)CO)C2)ncc1C(F)(F)F` [Compound I-57, (S)—N-(2-((2-((1-(2-Hydroxyacetyl)pyrrolidin-3-yl)amino)-5-(trifluoromethyl)pyrimidin-4-yl)amino)phenyl)acrylamide], the GI50 in assay [1] lay within 0.101 to 0.5 µM. Also, the concentration for half-maximal inhibition (IC50) on MEK1 activated ERK1 was 0.101 to 0.5 µM.

In the case of `C=CC(=O)Nc1ccccc1Nc1nc(N[C@H]2CCN(S(C)(=O)=O)C2)ncc1C(F)(F)F` [Compound I-58, (S)—N-(2-((2-((1-(Methylsulfonyl)pyrrolidin-3-yl)amino)-5-(trifluoromethyl)pyrimidin-4-yl)amino)phenyl)acrylamide], the concentration for 50% growth inhibition (GI50) in assay [1] is 0.101 to 0.5 µM. In addition, on MEK1 activated ERK1, the IC50 lay in the range of 0.101 to 0.5 µM.

Compound `C=CC(=O)Nc1ccccc1Nc1nc(N[C@H]2CCN(C(=O)OC)C2)ncc1C(F)(F)F` [Compound I-59, (S)-methyl 3-((4-((2-Acrylamidophenyl)amino)-5-(trifluoromethyl)pyrimidin-2-yl)amino)pyrrolidine-1-carboxylate] yielded a GI50 in assay [1] of 0.501 to 0.999 µM. The IC50 at MEK1 activated ERK1 lay within 0.501 to 0.999 µM.

In turn, `C=CC(=O)Nc1ccccc1Nc1nc(N[C@@H]2CCN(C(C)=O)C2)ncc1C(F)(F)F` [Compound I-60, (R)—N-(2-((2-((1-Acetylpyrrolidin-3-yl)amino)-5-(trifluoromethyl)pyrimidin-4-yl)amino)phenyl)acrylamide] had a concentration for 50% growth inhibition (GI50) in assay [1] of 0.501 to 0.999 µM. In addition, the IC50 on MEK1 activated ERK1 was 0.501 to 0.999 µM.

In assay [1], `C=CC(=O)Nc1cc(OC)ccc1Nc1nc(N[C@H]2CCCN(C(=O)CO)C2)ncc1C(F)(F)F` [Compound I-64, (S)—N-(2-((2-((1-(2-Hydroxyacetyl)piperidin-3-yl)amino)-5-(trifluoromethyl)pyrimidin-4-yl)amino)-5-methoxyphenyl)acrylamide] gave a GI50 of less than 0.1 µM.

`C=CC(=O)Nc1cc(OC)ccc1Nc1nc(Nc2cc(OC)nc(N3CCN(CC)CC3)c2)ncc1C(F)(F)F` [Compound I-88, N-(2-((2-((2-(4-Ethylpiperazin-1-yl)-6-methoxypyridin-4-yl)amino)-5-(trifluoromethyl)pyrimidin-4-yl)amino)-5-methoxyphenyl)acrylamide]: in assay [1], the GI50 is less than 0.1 µM.

Take `C=CC(=O)Nc1cc(C)ccc1Nc1nc(Nc2cc(OC)nc(N3CCN(CC)CC3)c2)ncc1C(F)(F)F` [Compound I-89, N-(2-((2-((2-(4-Ethylpiperazin-1-yl)-6-methoxypyridin-4-yl)amino)-5-(trifluoromethyl)pyrimidin-4-yl)amino)-5-methylphenyl)acrylamide]: the 50% growth inhibitory concentration (GI50) in assay [1] was less than 0.1 µM. Moreover, the concentration for half-maximal inhibition (IC50) at MEK1 activated ERK1 fell in the range of 0.101 to 0.5 µM.

In turn, `C=CC(=O)Nc1cc(C)ccc1Nc1nc(Nc2cc(OC)ncc2C)ncc1C(F)(F)F` [Compound I-90, N-(2-((2-((2-Methoxy-5-methylpyridin-4-yl)amino)-5-(trifluoromethyl)pyrimidin-4-yl)amino)-5-methylphenyl)acrylamide] yielded a GI50 in assay [1] of 0.501 to 0.999 µM.

With `C=CC(=O)Nc1cc(OC)ccc1Nc1nc(Nc2cc(OC)nc(N3CCN(C(C)=O)CC3)c2)ncc1C(F)(F)F` [Compound I-91, N-(2-((2-((2-(4-Acetylpiperazin-1-yl)-6-methoxypyridin-4-yl)amino)-5-(trifluoromethyl)pyrimidin-4-yl)amino)-5-methoxyphenyl)acrylamide], the concentration for 50% growth inhibition (GI50) in assay [1] is less than 0.1 µM.

In turn, `C=CC(=O)Nc1ccccc1Nc1nc(Nc2cc(OC)nc(OC)c2)ncc1C(F)(F)F` [Compound I-95, N-(2-((2-((2,6-Dimethoxypyridin-4-yl)amino)-5-(trifluoromethyl)pyrimidin-4-yl)amino)phenyl)acrylamide] had a concentration for 50% growth inhibition (GI50) in assay [1] of less than 0.1 µM.

`C=CC(=O)Nc1cc(C)ccc1Nc1nc(N[C@H]2CCCN(C(=O)CO)C2)ncc1Cl` [Compound I-140, (S)—N-(2-((5-chloro-2-((1-(2-hydroxyacetyl)piperidin-3-yl)amino)pyrimidin-4-yl)amino)-5-methylphenyl)acrylamide]: in assay [1], the concentration for 50% growth inhibition (GI50) is less than 0.1 µM.

As to `C=CC(=O)Nc1cc(OC)ccc1Nc1nc(Nc2cc(OC)ncc2C)ncc1Cl` [Compound I-242, N-(2-((5-chloro-2-((2-methoxy-5-methylpyridin-4-yl)amino)pyrimidin-4-yl)amino)-5-methoxyphenyl)acrylamide], the concentration for 50% growth inhibition (GI50) in assay [1] was 0.101 to 0.5 µM.

`C=CC(=O)Nc1ccccc1Nc1nc(Nc2cc(OC)nc(N3CCCC3)c2)ncc1C(F)(F)F` [Compound I-281, N-(2-((2-((2-Methoxy-6-(pyrrolidin-1-yl)pyridin-4-yl)amino)-5-(trifluoromethyl)pyrimidin-4-yl)amino)phenyl)acrylamide] gave a GI50 in assay [1] of less than 0.1 µM.

With `C=CC(=O)Nc1ccccc1Nc1nc(Nc2cc(OC)nc(OCCOC)c2)ncc1C(F)(F)F` [Compound I-283, N-(2-((2-((2-Methoxy-6-(2-methoxyethoxyl)pyridin-4-yl)amino)-5-(trifluoromethyl)pyrimidin-4-yl)amino)phenyl)acrylamide], in assay [1], the 50% growth inhibitory concentration (GI50) was less than 0.1 µM.

In turn, `C=CC(=O)Nc1cc(OC)ccc1Nc1nc(Nc2cc(OC)ncc2C)ncc1C(F)(F)F` [Compound I-284, N-(5-Methoxy-2-((2-((2-methoxy-5-methylpyridin-4-yl)amino)-5-(trifluoromethyl)pyrimidin-4-yl)amino)phenyl)acrylamide] had a concentration for 50% growth inhibition (GI50) in assay [1] of 0.101 to 0.5 µM.

With `C=CC(=O)Nc1ccccc1Nc1nc(Nc2cc(F)ccc2C)ncc1C(F)(F)F` [Compound I-285, N-(2-((2-((5-Fluoro-2-methylphenyl)amino)-5-(trifluoromethyl)pyrimidin-4-yl)amino)phenyl)acrylamide], the IC50 at MEK1 activated ERK1 lay within 0.501 to 0.999 µM.

In assay [1], `C=CC(=O)Nc1ccccc1Nc1nc(Nc2cc(NCCOC)nc(OC)c2)ncc1C(F)(F)F` [Compound I-286, N-(2-((2-((2-Methoxy-6-((2-methoxyethyl)amino)pyridin-4-yl)amino)-5-(trifluoromethyl)pyrimidin-4-yl)amino)phenyl)acrylamide] gave a 50% growth inhibitory concentration (GI50) of less than 0.1 µM.

Consider `C=CC(=O)Nc1ccccc1Nc1nc(Nc2ccnc(F)c2)ncc1C(F)(F)F` [Compound I-287, N-(2-((2-((2-Fluoropyridin-4-yl)amino)-5-(trifluoromethyl)pyrimidin-4-yl)amino)phenyl)acrylamide], for which, on MEK1 activated ERK1, the half-maximal inhibitory concentration (IC50) is 0.101 to 0.5 µM.

Regarding `C=CC(=O)Nc1cc(C)ccc1Nc1nc(Nc2ccnc(F)c2)ncc1C(F)(F)F` [Compound I-288, N-(2-((2-((2-Fluoropyridin-4-yl)amino)-5-(trifluoromethyl)pyrimidin-4-yl)amino)-5-methylphenyl)acrylamide], the IC50 at MEK1 activated ERK1 was 0.501 to 0.999 µM.

On to `C=CC(=O)Nc1ccccc1Nc1nc(Nc2cc(OC)nc(N3CCS(=O)(=O)CC3)c2)ncc1C(F)(F)F` [Compound I-291, N-(2-((2-((2-(1,1-Dioxidothiomorpholino)-6-methoxypyridin-4-yl)amino)-5-(trifluoromethyl)pyrimidin-4-yl)amino)phenyl)acrylamide], for which the GI50 in assay [1] was less than 0.1 µM.

With `C=CC(=O)Nc1cc(C)ccc1Nc1nc(Nc2cc(C)nc(OC)c2)ncc1C(F)(F)F` [Compound I-295, N-(2-((2-((2-methoxy-6-methylpyridin-4-yl)amino)-5-(trifluoromethyl)pyrimidin-4-yl)amino)-5-methylphenyl)acrylamide], at MEK1 activated ERK1, the half-maximal inhibitory concentration (IC50) was 0.101 to 0.5 µM.

In assay [1], `C=CC(=O)Nc1cc(C)ccc1Nc1nc(Nc2cc(OC)nc(N3CCN(C(C)=O)CC3)c2)ncc1Cl` [Compound I-296, N-(2-((2-((2-(4-acetylpiperazin-1-yl)-6-methoxypyridin-4-yl)amino)-5-chloropyrimidin-4-yl)amino)-5-methylphenyl)acrylamide] yielded a GI50 of less than 0.1 µM.

Take `C=CC(=O)Nc1cc(F)ccc1Nc1nc(Nc2cc(OC)ncc2C)ncc1C(F)(F)F` [Compound I-322, N-(5-fluoro-2-((2-((2-methoxy-5-methylpyridin-4-yl)amino)-5-(trifluoromethyl)pyrimidin-4-yl)amino)phenyl)acrylamide]: the GI50 in assay [1] was 0.101 to 0.5 µM.

In the case of `C=CC(=O)Nc1ccccc1Nc1nc(Nc2cc(OC)nc(N3CCN(C)CC3)c2)ncc1C(F)(F)F` [Compound I-324, N-(2-((2-((2-methoxy-6-(4-methylpiperazin-1-yl)pyridin-4-yl)amino)-5-(trifluoromethyl)pyrimidin-4-yl)amino)phenyl)acrylamide], the concentration for 50% growth inhibition (GI50) in assay [1] is less than 0.1 µM.

The compound `C=CC(=O)Nc1cc(C)ccc1Nc1nc(Nc2cc(OC)nc(N3CC(O)C3)c2)ncc1C(F)(F)F` [Compound I-328, N-(2-((2-((2-(3-hydroxyazetidin-1-yl)-6-methoxypyridin-4-yl)amino)-5-(trifluoromethyl)pyrimidin-4-yl)amino)-5-methylphenyl)acrylamide] yielded a GI50 in assay [1] of less than 0.1 µM.

On to `C=CC(=O)Nc1cc(OC)ccc1Nc1nc(Nc2cc(OC)nc(N3CCN(C)CC3)c2)ncc1C(F)(F)F` [Compound I-334, N-(5-methoxy-2-((2-((2-methoxy-6-(4-methylpiperazin-1-yl)pyridin-4-yl)amino)-5-(trifluoromethyl)pyrimidin-4-yl)amino)phenyl)acrylamide], for which the GI50 in assay [1] was less than 0.1 µM.

Take `C=CC(=O)Nc1cc(C)ccc1Nc1nc(Nc2cc(OC)cc(OC)c2)ncc1C(F)(F)F` [Compound I-339, N-(2-((2-((3,5-dimethoxyphenyl)amino)-5-(trifluoromethyl)pyrimidin-4-yl)amino)-5-methylphenyl)acrylamide]: in assay [1], the GI50 is less than 0.1 µM.

Take `C=CC(=O)Nc1cc(C)ccc1Nc1nc(Nc2cc(OC)ccc2C)ncc1C(F)(F)F` [Compound I-341, N-(2-((2-((5-methoxy-2-methylphenyl)amino)-5-(trifluoromethyl)pyrimidin-4-yl)amino)-5-methylphenyl)acrylamide]: the IC50 on MEK1 activated ERK1 fell in the range of 0.501 to 0.999 µM.
